Measured values reported in PubChem BioAssay (NCI).
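Tested at 5 concentrations; 48 h exposure; 96-well plates; endpoints linearly interpolated, else capped at highest concentration. GI50 = concentration required for 50% inhibition of growth. At the TGI there is no net growth.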

Tests used:
Assay in all cases: growth of human tumour cells (NCI), 48 h
[1] = test system: CAKI-1 renal
[2] = test system: MCF7 breast
[3] = test system: CCRF-CEM leukemia
[4] = test system: RPMI-8226 leukemia
[5] = test system: MOLT-4 leukemia
[6] = test system: OVCAR-4 ovarian
[7] = test system: BT-549 breast
[8] = test system: OVCAR-8 ovarian
[9] = test system: K-562 leukemia
[10] = test system: SR leukemia
[11] = test system: NCI/ADR-RES ovarian
[12] = test system: SF-268 CNS
[13] = test system: A549 NSCLC
[14] = test system: SN12C renal
[15] = test system: IGROV1 ovarian
[16] = test system: NCI-H460 lung
[17] = test system: HL-60(TB) leukemia
[18] = test system: SNB-19 CNS
[19] = test system: SK-MEL-2 melanoma
[20] = test system: EKVX NSCLC
[21] = test system: NCI-H23 lung
[22] = test system: UO-31 renal
[23] = test system: DU-145 prostate
[24] = test system: SNB-75 CNS
[25] = test system: MDA-MB-435
[26] = test system: PC-3 prostate
[27] = test system: OVCAR-5 ovarian
[28] = test system: HOP-62 NSCLC
[29] = test system: UACC-62 melanoma
[30] = test system: LOX IMVI melanoma
[31] = test system: HOP-92 NSCLC
[32] = test system: SW-620 colon
[33] = test system: SF-539 CNS
[34] = test system: SK-MEL-28 melanoma
[35] = test system: NCI-H522 lung
[36] = test system: NCI-H226 lung
[37] = test system: SK-MEL-5 melanoma
[38] = test system: MDA-MB-231 breast
[39] = test system: HS 578T breast
[40] = test system: HCT-116 colon
[41] = test system: MALME-3M melanoma
[42] = test system: TK-10 renal
[43] = test system: A498 renal
[44] = test system: M14 melanoma
[45] = test system: HT29 colon
[46] = test system: KM12 colon
[47] = test system: 786-0 renal
[48] = test system: ACHN renal
[49] = test system: RXF 393 renal
[50] = test system: SK-OV-3 ovarian
[51] = test system: U251 CNS
[52] = test system: UACC-257 melanoma
[53] = test system: HCT-15 colon
[54] = test system: HCC-2998 colon
[55] = test system: SF-295 CNS

Question: For COc1ccccc1NC1=C(Cl)C(=O)c2nc(C)ccc2C1=O, which GI50 [1] is on record?
Answer: The GI50 was 1500 nM.

Question: What about the TGI [1] of the same compound?
Answer: The TGI was 2870 nM.

Question: What about the GI50 [2] of the same compound?
Answer: The GI50 was 1780 nM.

Question: And the TGI [2]?
Answer: Its TGI is 4490 nM.

Question: What about the GI50 [3] of the same compound?
Answer: The GI50 was 1940 nM.

Question: What about the TGI [3] of the same compound?
Answer: Its TGI is 8210 nM.

Question: And the GI50 [4]?
Answer: The GI50 was 1570 nM.

Question: What about the TGI [4] of the same compound?
Answer: Its TGI is 4610 nM.

Question: And the GI50 [5]?
Answer: The GI50 was 2270 nM.

Question: And the TGI [5]?
Answer: Its TGI is 8600 nM.

Question: And the GI50 [6]?
Answer: Its GI50 is 1210 nM.

Question: What about the TGI [6] of the same compound?
Answer: The TGI was 2490 nM.

Question: What about the GI50 [7] of the same compound?
Answer: Its GI50 is 1720 nM.

Question: What about the TGI [7] of the same compound?
Answer: Its TGI is 3270 nM.

Question: What about the GI50 [8] of the same compound?
Answer: Its GI50 is 1610 nM.

Question: And the TGI [8]?
Answer: Its TGI is 3250 nM.

Question: And the GI50 [9]?
Answer: Its GI50 is 290 nM.

Question: What about the TGI [9] of the same compound?
Answer: The TGI was 2940 nM.

Question: And the GI50 [10]?
Answer: Its GI50 is 794 nM.

Question: What about the TGI [10] of the same compound?
Answer: The TGI was 4250 nM.

Question: What about the GI50 [11] of the same compound?
Answer: The GI50 was 2030 nM.

Question: And the TGI [11]?
Answer: Its TGI is 5160 nM.

Question: And the GI50 [12]?
Answer: Its GI50 is 1530 nM.

Question: What about the TGI [12] of the same compound?
Answer: Its TGI is 3050 nM.

Question: And the GI50 [13]?
Answer: The GI50 was 2440 nM.

Question: What about the TGI [13] of the same compound?
Answer: The TGI was 6240 nM.

Question: And the GI50 [14]?
Answer: The GI50 was 1700 nM.

Question: And the TGI [14]?
Answer: The TGI was 3290 nM.

Question: What about the GI50 [15] of the same compound?
Answer: Its GI50 is 1460 nM.

Question: What about the TGI [15] of the same compound?
Answer: Its TGI is 2920 nM.

Question: And the GI50 [16]?
Answer: Its GI50 is 3220 nM.

Question: What about the TGI [16] of the same compound?
Answer: Its TGI is 12000 nM.

Question: What about the GI50 [17] of the same compound?
Answer: The GI50 was 1370 nM.

Question: And the TGI [17]?
Answer: The TGI was 3520 nM.

Question: And the GI50 [18]?
Answer: Its GI50 is 1810 nM.

Question: What about the TGI [18] of the same compound?
Answer: Its TGI is 3720 nM.

Question: And the GI50 [19]?
Answer: Its GI50 is 1810 nM.

Question: And the TGI [19]?
Answer: The TGI was 3350 nM.

Question: What about the GI50 [20] of the same compound?
Answer: Its GI50 is 1610 nM.

Question: What about the TGI [20] of the same compound?
Answer: The TGI was 3050 nM.

Question: And the GI50 [21]?
Answer: Its GI50 is 1470 nM.

Question: What about the TGI [21] of the same compound?
Answer: The TGI was 3310 nM.

Question: And the GI50 [22]?
Answer: Its GI50 is 1420 nM.

Question: What about the TGI [22] of the same compound?
Answer: Its TGI is 2730 nM.

Question: And the GI50 [23]?
Answer: The GI50 was 1720 nM.

Question: And the TGI [23]?
Answer: The TGI was 3110 nM.

Question: What about the GI50 [24] of the same compound?
Answer: The GI50 was 1500 nM.

Question: What about the TGI [24] of the same compound?
Answer: The TGI was 2840 nM.

Question: What about the GI50 [25] of the same compound?
Answer: The GI50 was 1700 nM.

Question: What about the TGI [25] of the same compound?
Answer: Its TGI is 3110 nM.

Question: What about the GI50 [26] of the same compound?
Answer: The GI50 was 1210 nM.

Question: And the TGI [26]?
Answer: Its TGI is 2580 nM.

Question: What about the GI50 [27] of the same compound?
Answer: Its GI50 is 1860 nM.

Question: What about the TGI [27] of the same compound?
Answer: The TGI was 3420 nM.

Question: What about the GI50 [28] of the same compound?
Answer: Its GI50 is 2410 nM.

Question: What about the TGI [28] of the same compound?
Answer: Its TGI is 6980 nM.

Question: And the GI50 [29]?
Answer: The GI50 was 1820 nM.

Question: What about the TGI [29] of the same compound?
Answer: The TGI was 3370 nM.

Question: And the GI50 [30]?
Answer: Its GI50 is 952 nM.

Question: And the TGI [30]?
Answer: Its TGI is 2360 nM.

Question: And the GI50 [31]?
Answer: Its GI50 is 1850 nM.

Question: What about the TGI [31] of the same compound?
Answer: The TGI was 3300 nM.

Question: And the GI50 [32]?
Answer: The GI50 was 1840 nM.

Question: And the TGI [32]?
Answer: The TGI was 3730 nM.

Question: And the GI50 [33]?
Answer: Its GI50 is 1680 nM.

Question: What about the TGI [33] of the same compound?
Answer: Its TGI is 3130 nM.

Question: What about the GI50 [34] of the same compound?
Answer: The GI50 was 1850 nM.

Question: And the TGI [34]?
Answer: Its TGI is 3340 nM.

Question: What about the GI50 [35] of the same compound?
Answer: The GI50 was 1810 nM.

Question: What about the TGI [35] of the same compound?
Answer: The TGI was 3360 nM.

Question: And the GI50 [36]?
Answer: Its GI50 is 1930 nM.

Question: What about the TGI [36] of the same compound?
Answer: The TGI was 4520 nM.

Question: What about the GI50 [37] of the same compound?
Answer: The GI50 was 1750 nM.

Question: And the TGI [37]?
Answer: The TGI was 3170 nM.

Question: And the GI50 [38]?
Answer: Its GI50 is 1190 nM.

Question: And the TGI [38]?
Answer: Its TGI is 2530 nM.

Question: And the GI50 [39]?
Answer: Its GI50 is 2270 nM.

Question: What about the TGI [39] of the same compound?
Answer: The TGI was 5640 nM.

Question: And the GI50 [40]?
Answer: The GI50 was 1530 nM.

Question: And the TGI [40]?
Answer: Its TGI is 4160 nM.

Question: And the GI50 [41]?
Answer: The GI50 was 1710 nM.

Question: What about the TGI [41] of the same compound?
Answer: The TGI was 3190 nM.

Question: And the GI50 [42]?
Answer: Its GI50 is 2340 nM.

Question: And the TGI [42]?
Answer: The TGI was 3860 nM.

Question: What about the GI50 [43] of the same compound?
Answer: The GI50 was 1900 nM.

Question: And the TGI [43]?
Answer: Its TGI is 4600 nM.

Question: And the GI50 [44]?
Answer: The GI50 was 1820 nM.

Question: What about the TGI [44] of the same compound?
Answer: The TGI was 3810 nM.

Question: What about the GI50 [45] of the same compound?
Answer: The GI50 was 2130 nM.

Question: And the TGI [45]?
Answer: Its TGI is 4490 nM.

Question: And the GI50 [46]?
Answer: Its GI50 is 1490 nM.

Question: What about the TGI [46] of the same compound?
Answer: The TGI was 3080 nM.

Question: And the GI50 [47]?
Answer: The GI50 was 1910 nM.

Question: And the TGI [47]?
Answer: The TGI was 3610 nM.

Question: And the GI50 [48]?
Answer: The GI50 was 1470 nM.

Question: And the TGI [48]?
Answer: Its TGI is 2800 nM.

Question: What about the GI50 [49] of the same compound?
Answer: Its GI50 is 1420 nM.

Question: And the TGI [49]?
Answer: Its TGI is 2760 nM.

Question: And the GI50 [50]?
Answer: Its GI50 is 12600 nM.

Question: What about the TGI [50] of the same compound?
Answer: The TGI was 27500 nM.

Question: What about the GI50 [51] of the same compound?
Answer: Its GI50 is 1850 nM.

Question: And the TGI [51]?
Answer: Its TGI is 3730 nM.

Question: And the GI50 [52]?
Answer: Its GI50 is 1570 nM.

Question: And the TGI [52]?
Answer: The TGI was 3090 nM.

Question: And the GI50 [53]?
Answer: Its GI50 is 1330 nM.

Question: And the TGI [53]?
Answer: Its TGI is 3020 nM.

Question: What about the GI50 [54] of the same compound?
Answer: The GI50 was 1870 nM.

Question: And the TGI [54]?
Answer: Its TGI is 3460 nM.

Question: And the GI50 [55]?
Answer: The GI50 was 1850 nM.

Question: And the TGI [55]?
Answer: The TGI was 3420 nM.
